± gives the expanded uncertainty stated by the source.
Conditions: Liquid, Twin ebulliometer

CCCCCCC [heptane]
vapor or sublimation pressure (372.08 K): 102.9 ± 0.065 kPa
vapor or sublimation pressure (374.5 K): 110.39 ± 0.067 kPa
vapor or sublimation pressure (377.68 K): 120.89 ± 0.074 kPa
vapor or sublimation pressure (384.39 K): 145.56 ± 0.081 kPa
vapor or sublimation pressure (389.41 K): 166.41 ± 0.09 kPa
vapor or sublimation pressure (393.58 K): 185.5 ± 0.098 kPa
vapor or sublimation pressure (396.7 K): 200.79 ± 0.11 kPa
vapor or sublimation pressure (401.26 K): 224.89 ± 0.11 kPa
vapor or sublimation pressure (405.44 K): 248.92 ± 0.12 kPa
vapor or sublimation pressure (409.66 K): 275.09 ± 0.13 kPa
vapor or sublimation pressure (413.8 K): 302.76 ± 0.15 kPa
vapor or sublimation pressure (419.17 K): 341.76 ± 0.16 kPa
vapor or sublimation pressure (423.85 K): 378.8 ± 0.17 kPa
vapor or sublimation pressure (428.69 K): 420.15 ± 0.19 kPa
vapor or sublimation pressure (433.81 K): 467.65 ± 0.2 kPa
vapor or sublimation pressure (438.86 K): 518.27 ± 0.22 kPa
vapor or sublimation pressure (443.5 K): 568.27 ± 0.23 kPa
vapor or sublimation pressure (447.95 K): 619.76 ± 0.25 kPa
vapor or sublimation pressure (451.8 K): 666.97 ± 0.27 kPa
vapor or sublimation pressure (456.35 K): 726.16 ± 0.28 kPa
vapor or sublimation pressure (459.78 K): 773.29 ± 0.3 kPa
vapor or sublimation pressure (465.07 K): 850.62 ± 0.32 kPa
vapor or sublimation pressure (469.84 K): 925.23 ± 0.34 kPa
vapor or sublimation pressure (473.39 K): 983.9 ± 0.35 kPa
vapor or sublimation pressure (476.11 K): 1030.6 ± 0.37 kPa
vapor or sublimation pressure (479.57 K): 1092.4 ± 0.39 kPa
vapor or sublimation pressure (483.67 K): 1169.4 ± 0.41 kPa
vapor or sublimation pressure (487.36 K): 1242.3 ± 0.43 kPa
vapor or sublimation pressure (490.81 K): 1313.4 ± 0.45 kPa
vapor or sublimation pressure (494.11 K): 1384.2 ± 0.46 kPa
vapor or sublimation pressure (496.77 K): 1443.4 ± 0.48 kPa
vapor or sublimation pressure (500.01 K): 1518.2 ± 0.5 kPa
vapor or sublimation pressure (503.59 K): 1604.1 ± 0.53 kPa
vapor or sublimation pressure (507.39 K): 1699.5 ± 0.55 kPa
vapor or sublimation pressure (510.95 K): 1793 ± 0.58 kPa
vapor or sublimation pressure (515.27 K): 1911.6 ± 0.6 kPa
vapor or sublimation pressure (518.99 K): 2019.1 ± 0.63 kPa
vapor or sublimation pressure (522.22 K): 2116.1 ± 0.66 kPa
vapor or sublimation pressure (525.53 K): 2219.7 ± 0.69 kPa
vapor or sublimation pressure (528.3 K): 2309.8 ± 0.71 kPa
vapor or sublimation pressure (531.47 K): 2416.5 ± 0.74 kPa
vapor or sublimation pressure (534.57 K): 2525.7 ± 0.77 kPa
vapor or sublimation pressure (537.2 K): 2621.8 ± 0.79 kPa
